# Reference: US20120238105A1, “FORMULATIONS FOR THE PRODUCTION OF ELECTRONIC DEVICES” (Merck Patent GmbH, priority 2009, published 2012)
# Assay: solubility of matrix compounds for producing devices from solution
# Type: physicochemical
# Conditions: compounds dissolved in toluene or chlorobenzene for spin coating of the emission layer (matrix with 5% by weight emitter)
# Experimental: Materials according to the invention are used from solution, where they result in simple devices having nevertheless good properties. The production of such components is based on the production of polymeric light-emitting diodes (PLEDs), which has already been described many times in the literature (for example in WO 2004/037887 A2). In the present case, the compounds according to the invention are dissolved in toluene or chlorobenzene. The concentration employed in the examples given here is 20% by weight of the emitter (T-1 or compound 18) and 80% by weight of the matrix materials (compounds 5 to 17). The typical solids content of such solutions is between 16 and 25 g/l if, as here, the typical layer thickness of 80 nm for a device is to be achieved by means of spin coating.
# The concentration employed in the examples given here is 5% by weight of the emitter (SEB-095, Merck) and 95% by weight of the matrix materials (compounds 28 and 29). The typical solids content of such solutions is […] if, as here, the typical layer thickness of 50 nm for a device is to be achieved by means of spin coating.
row,SMILES,solubility
1,c1ccc(-c2c3ccccc3c(-c3cccc4c3ccc3cc5ccccc5cc34)c3ccccc23)cc1 [Compound 25],poor solubility
2,c1ccc(-c2cccc(-c3c4ccccc4c(-c4cccc5c4ccc4cc6ccccc6cc45)c4ccccc34)c2)cc1 [Compound 27],poor solubility
3,c1ccc(-c2cc(-c3ccccc3)cc(-c3c4ccccc4c(-c4cccc5c4ccc4cc6ccccc6cc45)c4ccccc34)c2)cc1 [Compound 28],improved solubility
4,c1ccc(-c2cc(-c3ccccc3)cc(-c3cccc(-c4c5ccccc5c(-c5cccc6c5ccc5cc7ccccc7cc56)c5ccccc45)c3)c2)cc1 [Compound 29],improved solubility
